PubChem BioAssay (NCI)
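Dose response: 5 concentrations. Exposure: 48 h. Format: 96-well plates. Endpoint: linear interpolation; highest concentration if not reached. At the TGI there is no net growth.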

Columns and labels:
Experiment in all cases: NCI tumour cell line growth inhibition, 48 h
U251 CNS = tested on: U251 CNS
HCT-15 colon = tested on: HCT-15 colon
MALME-3M melanoma = tested on: MALME-3M melanoma
NCI-H522 lung = tested on: NCI-H522 lung
IGROV1 ovarian = tested on: IGROV1 ovarian
MDA-N = tested on: MDA-N
BT-549 breast = tested on: BT-549 breast
SR leukemia = tested on: SR leukemia
SF-295 CNS = tested on: SF-295 CNS
RXF 393 renal = tested on: RXF 393 renal
A498 renal = tested on: A498 renal
UACC-257 melanoma = tested on: UACC-257 melanoma
RPMI-8226 leukemia = tested on: RPMI-8226 leukemia
KM12 colon = tested on: KM12 colon
SK-MEL-28 melanoma = tested on: SK-MEL-28 melanoma
SNB-75 CNS = tested on: SNB-75 CNS

Row | Structure (SMILES) | TGI (U251 CNS) [µM] | TGI (HCT-15 colon) [µM] | TGI (MALME-3M melanoma) [µM] | TGI (NCI-H522 lung) [µM] | TGI (IGROV1 ovarian) [µM] | TGI (MDA-N) [µM] | TGI (BT-549 breast) [µM] | TGI (SR leukemia) [µM] | TGI (SF-295 CNS) [µM] | TGI (RXF 393 renal) [µM] | TGI (A498 renal) [µM] | TGI (UACC-257 melanoma) [µM] | TGI (RPMI-8226 leukemia) [µM] | TGI (KM12 colon) [µM] | TGI (SK-MEL-28 melanoma) [µM] | TGI (SNB-75 CNS) [µM]
1 | CC1(C)Oc2ccc3c(=O)cc(-c4ccccc4)oc3c2C1C(=O)O (configuration not stated) | > 100 | > 100 | > 100 | > 100 | > 100 | > 100 | > 100 | > 100 | > 100 | > 100 | > 100 | > 100 | – | – | – | –
2 | O=C1NC(N2CCOCC2)=N/C1=C\c1ccc(O)cc1 | > 100 | > 100 | > 100 | > 100 | > 100 | > 100 | > 100 | > 100 | > 100 | > 100 | – | > 100 | > 100 | > 100 | > 100 | > 100
3 | COC1=CC(=O)N(C)C(O)C1(C#N)OC1OC(CO)C(O)C(O)C1O (configuration not stated) | > 100 | > 100 | – | > 100 | > 100 | > 100 | > 100 | > 100 | > 100 | – | > 100 | > 100 | > 100 | > 100 | > 100 | > 100
4 | CC(C)Oc1cccc(N2C(Nc3ccccc3)=Nc3ccncc3S2(=O)=O)c1 | > 100 | 75.5 | 63.7 | > 100 | 87.6 | > 100 | 66.4 | > 100 | 95.1 | 95.6 | 79.9 | 50.4 | – | 65.8 | 17.2 | > 100
5 | Cc1nc(-c2cc3ccccc3oc2=O)cs1 | > 100 | > 100 | > 100 | > 100 | > 100 | > 100 | 31 | > 100 | > 100 | > 100 | – | > 100 | > 100 | > 100 | > 100 | –
6 | CC(=O)C(C)(C)CCC(C)(C)C(C)=O | > 100 | > 100 | > 100 | > 100 | > 100 | > 100 | > 100 | > 100 | > 100 | > 100 | – | > 100 | – | > 100 | > 100 | > 100
7 | O=C1/C(=C/c2cccc3ccccc23)CCc2ccc([N+](=O)[O-])cc21 | 39.4 | > 100 | > 100 | – | > 100 | 23.4 | 45.5 | – | 31.1 | 88.8 | > 100 | – | > 100 | > 100 | > 100 | 42.1
8 | CC1CCC2(OC1)OC1C(O)C3C4CCC5CC(OC6OC(CO)C(OC7OC(CO)C(O)C(OC8OCC(O)C(O)C8O)C7OC7OC(CO)C(O)C(OC8OC(CO)C(O)C(O)C8O)C7O)C(O)C6O)C(O)CC5(C)C4CCC3(C)C1C2C (configuration not stated) | 10.2 | 12.2 | – | 3.79 | 6.7 | 7.94 | 3.19 | 18.8 | 3.66 | – | 46.6 | 22.9 | 9.28 | 4.77 | > 100 | 7.76
9 | CC(C)=CCC[C@@H](C)C1=C(O)C(Nc2ccccc2I)=C(C)C(=O)C1=O | > 75 | > 75 | 29.8 | – | 17.9 | > 75 | > 75 | 21.4 | > 38.9 | > 50 | 31.5 | 74.3 | > 36.8 | 19.7 | > 75 | 37.1
10 | O=C(O)/C=C\C(=O)Nn1c(Cc2ccc(Cl)cc2)n[nH]c1=O | > 100 | > 100 | > 100 | > 100 | > 100 | > 100 | > 100 | > 100 | > 100 | > 100 | > 100 | > 100 | – | – | – | –
11 | CCOC(=O)c1cc(Br)c(-c2onc(C)c2Br)[nH]1 | 42.6 | > 100 | > 100 | – | > 100 | > 100 | > 100 | > 100 | > 100 | 38.7 | > 100 | > 100 | > 100 | > 100 | > 100 | > 100
12 | Cn1c(=O)sc2cc(C(=S)N3CCCCC3)ccc21 | > 100 | > 100 | 55.4 | – | > 100 | > 100 | > 100 | > 100 | > 100 | > 100 | > 100 | > 100 | > 100 | > 100 | > 100 | 86.5
13 | COC(=O)Cn1cnc2c(Cl)nc(Nc3ccccc3)nc21 | > 100 | 80.4 | > 100 | – | 56.1 | > 100 | > 100 | > 100 | > 100 | > 100 | > 100 | > 100 | > 100 | > 100 | > 100 | > 100
14 | COC(NC(=O)Nc1ccccc1C)(C(F)(F)F)C(F)(F)F | > 100 | – | – | > 100 | > 100 | > 100 | > 100 | > 100 | > 100 | > 100 | > 100 | – | > 100 | > 100 | > 100 | > 100
15 | COc1ccc2cc(C(C)C(=O)N3C(=O)OCC3(C)C)ccc2c1 (configuration not stated) | > 100 | > 100 | > 100 | – | > 100 | > 100 | > 100 | > 100 | > 100 | – | > 100 | > 100 | > 100 | – | > 100 | > 100
16 | Clc1ccc(C2=CCN3CC=C(c4ccc(Cl)cc4)C23)cc1 | 23.7 | 23.5 | 27.3 | 22.8 | 21.9 | 22.7 | 24 | 21.9 | 28.9 | – | – | 24.2 | 18.5 | 19.2 | 28 | –
